Type in all cases: cell-based, human
One experiment relates to MCF-7 cells. The experiment can be described thus: JC-1 mitochondrial membrane potential, flow cytometry. As to conditions: 5 µM, 24 h, MCF-7, JC-1. The procedure:
Lipophilic fluorochrome JC-1 (5,5′,6,6′-tetrachloro-1,1′,3,3′-tetraethylbenzimidazolcarbocyanine iodide) (BD Biosciences, San Diego, CA, USA) was applied to determine the novel structures’ effects on the MMP [35]. MCF-7 cells were seeded on 6-well plates at 5 × 10^6 cells per well, followed by incubation for 24 h. Afterwards, the cells were treated for 24 h with new 4-thiazolidinone derivatives (Les-6416, Les-6418, Les-6381, Les-6423, and Les-6424) in a concentration of 5 µM and the reference drug doxorubicin hydrochloride in a concentration of 0.5 µM. Then, cells were collected at a concentration of 1 × 10^6 cells/mL and washed two times with PBS. Next, 0.5 mL of the pre-prepared JC-1 working solution was added to each sample in accordance with the instructions of the manufacturer, followed by incubation at 37 °C for 15 min in a CO2 incubator. After that, an assay buffer was added to each sample to wash the cells several times. Afterwards, 0.5 mL from each sample was transferred to the tubes for immediate assessment using a BD FACSCanto II flow cytometer (Becton Dickinson Biosciences, San Jose, CA, USA). For each sample, 1 × 10^4 events were analyzed. The obtained results were investigated by applying FACSDiva software Version 6.1.3 (BD Biosciences Systems, San Jose, CA, USA).
A critical determinant of the induction of the intrinsic pathway of apoptosis is the decrease in mitochondrial membrane potential (ΔΨm). To investigate the effects of the novel 4-thiazolidinones on mitochondrial membrane potential, flow cytometry analysis of JC-1 dye was applied. JC-1 is a carbocyanine lipophilic cationic fluorochrome whose fluorescence depends on the MMP. Red fluorescence is emitted in viable cells with healthy mitochondria; however, apoptotic or necrotic cells with damaged mitochondria emit green fluorescence.
Background: Flow cytometry measures light scatter and fluorescence of single cells or particles in a stream.

The next experiment concerns caspase 8. Put plainly: FLICA caspase-8 activity, flow cytometry. As to conditions: 5 µM, 24 h, MCF-7. As for the experimental part:
(§1) To determine the effects of the novel compounds on the caspases-3/7, caspase-8, caspase-9, and caspase-10 activity, the FLICA Caspase-3/7 Assay Kit, FLICA Caspase-8 Assay Kit, FLICA Caspase-9 Assay Kit, and FLICA Caspase-10 Assay Kit were applied (ImmunoChemistry Technologies, Bloomington, MN, USA). MCF-7 cells were seeded on 6-well plates (1 × 10^5 cells per well) and incubated for 24 h. Afterwards, they were treated for 24 h with tested compounds (Les-6416, Les-6418, Les-6381, Les-6423, and Les-6424) in a concentration of 5 µM and the reference drug doxorubicin hydrochloride in a concentration of 0.5 µM. Next, cells were amassed and washed two times with cold PBS, followed by resuspension in an Apoptosis Wash Buffer to a final concentration of 5 × 10^5 cells/mL. Afterwards, 290 µL of the prepared cell suspensions were transferred into tubes, followed by the addition of 10 µL of FLICA solution, prepared immediately before use, to each sample and incubated for an hour at 37 °C. Next, cells were washed two times with 2 mL of Apoptosis Wash Buffer, provided in the kit, centrifuged, and resuspended in 300 µL of the buffer. Prepared samples were assessed by a BD FACSCanto II flow cytometer (Becton Dickinson Biosciences, San Jose, CA, USA). For each sample, 1 × 10^4 events were analyzed. The obtained results were investigated by applying FACSDiva software Version 6.1.3 (BD Biosciences Systems, San Jose, CA, USA).
(§2) To further investigate the effects of the newly synthesized compounds on the process of apoptosis we decided to measure their impact on various caspases as evidence of intrinsic (caspase 9) or extrinsic (caspase 8, 10) pathways of programmed cell death by applying flow cytometry analysis after 24 h treatment of MCF-7 breast cancer cells with novel 4-thiazolidinone derivatives and reference drug doxorubicin hydrochloride. […] With 41.28 ± 5.45%, 43.23 ± 2.85%, and 41.90 ± 6.89% of cells with activated caspase 8, 10, and 9, respectively, Les-6416 continued the trend of displaying the most significant effect on the three tested caspases. […]

Another experiment deals with caspase 7. The experiment can be described thus: FLICA caspase-3/7 activity, flow cytometry. The following applies: 5 µM, 24 h, MCF-7. As for the experimental part: as §1, §2

Molecules are shown by their SMILES.

For `COc1ccc(C=C2SC(Nc3cc(OC)c(OC)c(OC)c3)=NC2=O)cc1` [Les-6381, 5-(4-Methoxybenzylidene)-2-((3,4,5-trimethoxyphenyl)amino)thiazol-4(5H)-one], the “Reduced ΔΨm, cell population” value with MCF-7 cells was 27.95 ± 1.43%. Besides, in the experiment on caspase 8, the “cells with active caspase 8” value is 19.8 ± 3.69%. In addition, in the experiment with caspase 7, the “cells with active caspase 7” value is given as 15.05 ± 1.73%.

Take `COc1cc(NC2=NC(=O)C(=Cc3ccc4cc[nH]c4c3)S2)cc(OC)c1OC` [Les-6416, 5-((1H-Indol-6-yl)methylene)-2-((3,4,5-trimethoxyphenyl)amino)thiazol-4(5H)-one]: in the experiment on MCF-7 cells, the “Reduced ΔΨm, cell population” value came to 33.80 ± 0.85%. Moreover, the “cells with active caspase 8” value in the experiment on caspase 8 turned out to be 41.28 ± 5.45%. In the experiment on caspase 7, the “cells with active caspase 7” value was determined as 47.90 ± 0.57%.

In the case of `COc1cc(NC2=NC(=O)C(=Cc3c[nH]c4ccccc34)S2)cc(OC)c1OC` [Les-6418, 5-((1H-Indol-3-yl)methylene)-2-((3,4,5-trimethoxyphenyl)amino)thiazol-4(5H)-one], the “Reduced ΔΨm, cell population” value in the experiment on MCF-7 cells came to 22.35 ± 3.06%. For the same molecule, the “cells with active caspase 7” value in the experiment with caspase 7 was determined as 19.85 ± 0.07%.

Regarding `COc1cc(NC2=NC(=O)C(=Cc3cccs3)S2)cc(OC)c1OC` [Les-6423, 5-(Thiophen-2-ylmethylene)-2-((3,4,5-trimethoxyphenyl)amino)thiazol-4(5H)-one], the “cells with active caspase 8” value in the experiment on caspase 8 was found to be 18.13 ± 1.96%.

Values taken from paper PMC12190436, “5-Ene-2-arylaminothiazol-4(5H)-ones Induce Apoptosis in Breast Cancer Cells” (Cells, 2025).
